Test results taken from patent US12698264B2, “Synthesis of tigilanol tiglate and analogs thereof” (THE BOARD OF TRUSTEES OF THE LELAND STANFORD JUNIOR …, priority 2021, dated 2026).
Entries after “also recorded” stand apart in the source; their conditions may differ.

Legend:
[1] = Incubation in neutral aqueous media; type: physicochemical; conditions: upon incubation in neutral aqueous media
[2] = tested on: protein kinase C (PKC); type: binding, human
Protocol: (§1) The protein kinase C (PKC) affinity of EBC-46 and EBC-46 analogs was performed via competition with ^3H-phorbol-12,13-dibutyrate (^3H-PDBu). This procedure entailed a glass-fiber filtration method to determine bound radioligand.
(§2) Preparation of PKC binding assay buffer: To a 50 mL polypropylene tube was added Tris-HCl (pH 7.4, 1 M, 1 mL), KCl (1 M, 2 mL), CaCl2 (0.1 M, 30 μL), and bovine serum albumin (BSA, 40 mg, Sigma-Aldrich). This mixture was diluted to 20 mL with deionized H2O and mixed gently. The buffer was stored on ice until use.
(§3) Preparation of phosphatidylserine (PS) vesicles: For every two assays, 3.5 mg phosphatidylserine (Avanti Polar Lipids, porcine, 25 mg/mL CHCl3 solution) was concentrated by removing chloroform under a stream of nitrogen followed by reduced pressure. […]
(§4) For each data point, 280 μL of “Master Mix” Solution and 20 μL of analog compound at a specified concentration were added to a polypropylene tube. […] Maximal ^3H-PDBu binding was assessed in triplicate by substitution of the analog compound with 20 μL DMSO. […] Scintillation vials were filled with Bio-Safe II scintillation fluid (5 mL) and measured for radioactivity using a Beckman LS 6000SC scintillation counter. […] The Kd of ^3H-PDBu for PKC isoforms was measured separately via saturation binding experiments under identical conditions.

[3] = tested on: PKC-βI-GFP; type: cell-based, Chinese hamster
Protocol: 2 mL of fresh F-12−/− was then added to each well, taking care not to disturb adherent cells. […] 250 μL of the Lipofectamine 2000 suspension was added to the DNA suspension and the solution incubated for 30 minutes at RT. 500 μL of the Lipofectamine/DNA suspension was added to the respective wells of the 6-well plate. The cells were then incubated at 37° C.

[4] = tested on: mast cell tumors; conditions: canines, cited from earlier work
[5] = target: T1, PKC-βI (Homo sapiens, UniProt P05771); type: binding
T1 construct: purchased Invitrogen
T1 sequence (P05771 whole entry): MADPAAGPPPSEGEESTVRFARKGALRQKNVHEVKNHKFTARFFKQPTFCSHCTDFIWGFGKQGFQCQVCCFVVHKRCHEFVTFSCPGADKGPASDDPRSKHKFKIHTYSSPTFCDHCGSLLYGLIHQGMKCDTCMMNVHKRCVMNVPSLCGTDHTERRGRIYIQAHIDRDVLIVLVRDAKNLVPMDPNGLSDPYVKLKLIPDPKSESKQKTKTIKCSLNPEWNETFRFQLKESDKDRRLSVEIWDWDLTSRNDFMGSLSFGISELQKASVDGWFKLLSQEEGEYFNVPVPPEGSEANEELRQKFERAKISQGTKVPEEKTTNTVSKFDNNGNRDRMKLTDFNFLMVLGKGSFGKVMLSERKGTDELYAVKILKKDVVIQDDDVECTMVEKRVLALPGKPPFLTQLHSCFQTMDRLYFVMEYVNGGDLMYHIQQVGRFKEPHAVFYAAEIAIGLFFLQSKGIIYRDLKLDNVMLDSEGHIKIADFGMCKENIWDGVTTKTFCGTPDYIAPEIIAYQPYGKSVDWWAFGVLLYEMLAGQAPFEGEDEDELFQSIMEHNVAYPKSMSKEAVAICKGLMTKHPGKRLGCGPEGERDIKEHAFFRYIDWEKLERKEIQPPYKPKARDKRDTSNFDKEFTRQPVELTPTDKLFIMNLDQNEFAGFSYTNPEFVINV
Protocol: as §1, §2, §3, §4

[6] = target: PKC δ (Homo sapiens, UniProt Q05655); assay: PKC binding of trigowiin A; conditions: type of constant not given; read-out: binds with PKC δ
Sequence of PKC δ (Q05655 whole entry): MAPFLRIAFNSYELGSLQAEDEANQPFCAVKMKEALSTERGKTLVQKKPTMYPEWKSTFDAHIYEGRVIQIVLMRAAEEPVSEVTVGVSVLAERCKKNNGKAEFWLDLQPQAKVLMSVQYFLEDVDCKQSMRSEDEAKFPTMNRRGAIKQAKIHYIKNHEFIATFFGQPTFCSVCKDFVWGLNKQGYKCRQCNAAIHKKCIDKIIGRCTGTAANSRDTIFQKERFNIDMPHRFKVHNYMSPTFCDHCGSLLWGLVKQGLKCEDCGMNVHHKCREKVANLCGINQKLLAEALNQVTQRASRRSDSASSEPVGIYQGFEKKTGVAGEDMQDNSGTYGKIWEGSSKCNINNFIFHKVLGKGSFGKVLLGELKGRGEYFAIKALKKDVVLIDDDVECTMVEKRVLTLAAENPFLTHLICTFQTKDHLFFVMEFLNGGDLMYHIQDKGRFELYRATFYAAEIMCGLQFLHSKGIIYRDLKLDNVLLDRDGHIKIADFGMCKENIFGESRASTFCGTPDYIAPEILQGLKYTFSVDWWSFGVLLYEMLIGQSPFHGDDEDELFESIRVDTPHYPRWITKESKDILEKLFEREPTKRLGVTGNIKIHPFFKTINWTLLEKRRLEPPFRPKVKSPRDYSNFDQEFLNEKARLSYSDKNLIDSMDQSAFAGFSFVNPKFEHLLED

[7] = target: PKC β (Homo sapiens, UniProt P05771); assay: PKC binding of trigowiin A; conditions: type of constant not given; read-out: binds with PKC β
Sequence of PKC β (P05771 whole entry, species assumed): as the sequence (P05771 whole entry) above

[8] = tested on: chikungunya virus (CHKV); conditions: cited from earlier work

Compound	stability in neutral aqueous media [1]	PKC binding affinity [2]	translocation of PKC-βI-GFP [3]	remission ([4]; after a second dose) [%]	complete response ([4]; after a single intratumoral injection) [%]	PKC isoform binding selectivity [5]	PKC δ binding value (constant type not stated) [6] [nM]	PKC β binding affinity [7] [nM]	antiviral activity against chikungunya virus [8]
C/C=C(\C)C(=O)O[C@@H]1[C@@H](C)[C@@]2(O)C([C@@H]3C(C)(C)[C@]13OC(=O)[C@@H](C)CC)[C@@H]1O[C@]1(CO)[C@@H](O)[C@]1(O)C(=O)C(C)=C[C@H]12 (stereo partly shown) [EBC-46, tigilanol tiglate]	spontaneously undergo Payne rearrangement to EBC-211	potent PKC affinity	modest translocation; also recorded: robust translocation	88	75	isoform-selective binding			
CC(=O)O[C@@H]1[C@@H](C)[C@@]2(O)C([C@@H]3C(C)(C)[C@]13OC(C)=O)[C@@H]1O[C@]1(CO)[C@@H](O)[C@]1(O)C(=O)C(C)=C[C@H]12 (stereo partly shown) [SUW401]		very low PKC binding affinity							
trigowiin A							20.3	19.3	moderate antiviral activity
